Reference: publication PMC5048296, “Sex pheromone recognition and characterization of three pheromone-binding proteins in the legume pod borer, Maruca vitrata Fabricius (Lepidoptera: Crambidae)” (Scientific Reports, 2016)
pIC50, pKd, pKi: −log10 of the molar value. ≈ marks a conversion by molar mass, not a printed value. Read-outs that look alike come from different tables or passages of the source.

What was measured:
MvitPBP1 = MvitPBP1 (Maruca vitrata, UniProt A0A0K0K7G1); assay: Fluorescence competitive binding assay with 1-NPN probe, recombinant MvitPBP1
Protocol: (§1) Fluorescence binding activity was determined according to the method of Sun et al.[33]. Emission fluorescence spectra were recorded on a Hitachi F-4500 at 25 °C in a right angle configuration, with a 1 cm light path quartz cuvette and 5 nm slits for both excitation and emission. The protein was dissolved in 20 mM Tris-HCl buffer (pH 7.4) and ligands were added as 1 mM methanol solutions. To measure the affinity of the fluorescent ligand 1-NPN to recombinant target proteins, a 2 μM protein solution in 20 mM Tris-HCl (pH 7.4) was titrated with aliquots of […] ligand in methanol to final concentrations of 2–16 μM. After each PBP or ligand was added into the reaction buffer, the mixture solution was incubated for 2 min at room temperature. The probe was excited at 337 nm and emission spectra were recorded between 380 and 450 nm. The affinities of the other ligands were measured in competitive binding assays. A solution of the protein and 1-NPN at a concentration of 2 μM was titrated with 1 mM methanol solutions of each competitor over concentration ranges of 2–24 μM, depending on the ligand (the solubilities are (EPA estimates): E10E12-16:Ald, 0.5 uM; E10-16:Ald, 0.3 uM; E10E12-16:OH, 0.17 uM; and E10-16:OH, 0.97 uM in ChemSpider). The dissociation constant for 1-NPN and the stoichiometry of binding were obtained by processing the data using Prism software. Dissociation constants of the competitors were calculated from the corresponding IC50 values (concentrations of ligands halving the initial fluorescence value of 1-NPN), using the equation: Ki = [IC50]/1 + [1-NPN]/K1-NPN, where [1-NPN] is the free concentration of 1-NPN and K1-NPN is the dissociation constant of the coplex protein/1-NPN.

MvitPBP2 = MvitPBP2 (Maruca vitrata, UniProt A0A1D6YJA8); assay: Fluorescence competitive binding assay with 1-NPN probe, recombinant MvitPBP2
Protocol: as §1

[1] = parameters: method as in ChemSpider; conditions: ref ChemSpider; cited from earlier work
MvitGOBP2 = system: MvitGOBP2; parameters: method as in PMID 26517714; conditions: read-out: Ligand concentration at which fluorescence intensity of the MvitGOBP2/1-NPN complex decreased to approximately 50%; cited from earlier work
[2] = system: MvitPBP3 (Maruca vitrata); assay: Fluorescence competitive binding assay with 1-NPN probe, recombinant MvitPBP3
Protocol: as §1, with “A solution of the protein and 1-NPN at a concentration of 2 μM was titrated with 1 mM methanol solutions of each competitor over concentration ranges of 2–24 μM, depending on the ligand (the solubilities are (EPA estimates): E10E12-16:Ald, 0.5 uM; E10-16:Ald, 0.3 uM; E10E12-16:OH, 0.17 uM; and E10-16:OH, 0.97 uM in ChemSpider). The dissociation constant for 1-NPN and the stoichiometry of binding were obtained by processing the data using Prism software.” left out

[3] = MvitPBP1, 2 μM protein and 1-NPN, 20 mM Tris-HCl pH 7.4, read-out: IC50 (ligand concentration displacing 50% of the fluorescence intensity of the MvitPBPs/1-NPN complex)
[4] = MvitPBP1, calculated from IC50, read-out: Ki (dissociation constant)
[5] = MvitPBP2; 2 μM protein and 1-NPN, 20 mM Tris-HCl pH 7.4; read-out: IC50 (ligand concentration displacing 50% of the fluorescence intensity of the MvitPBPs/1-NPN complex)
[6] = MvitPBP2; calculated from IC50; read-out: Ki (dissociation constant)

Chain of MvitPBP1 (A0A0K0K7G1 entry or part of it): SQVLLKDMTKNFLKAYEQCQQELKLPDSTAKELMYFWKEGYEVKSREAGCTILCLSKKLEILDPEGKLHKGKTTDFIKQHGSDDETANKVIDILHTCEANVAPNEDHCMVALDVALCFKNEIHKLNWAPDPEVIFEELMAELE
Chain of MvitPBP2 (A0A1D6YJA8 entry or part of it): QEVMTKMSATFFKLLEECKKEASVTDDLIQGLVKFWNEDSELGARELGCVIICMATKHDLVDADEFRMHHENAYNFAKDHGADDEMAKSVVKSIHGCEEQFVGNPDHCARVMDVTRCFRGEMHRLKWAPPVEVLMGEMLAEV
Chain of MvitPBP3 (Maruca vitrata) (A0A1D6YJA8 entry or part of it): as above

| Compound | pIC50 (MvitPBP1; [3]) | pKi (MvitPBP1; [4]) | pIC50 (MvitPBP2; [5]) | pKi (MvitPBP2; [6]) | Solubility (EPA estimates) [1] | other results |
| --- | --- | --- | --- | --- | --- | --- |
| CCCCC/C=C/CCCCCCCCC=O [E10-16: Ald, (E)-10-Hexadecenal] | 5.13 | 5.19 | 5.26 | 5.32 | 0.3 µM (≈ 0.0715 µg/mL) |  |
| Oc1cccc2[nH]ccc12 [1H-indol-4-ol] | 4.65 | 4.71 |  |  |  |  |
| CCCCCCCCOC(=O)CCC [Butanoic acid octyl ester] |  |  |  |  |  | pIC50 (MvitGOBP2): 5.07 |
| CC(=O)c1ccc(C(C)=O)cc1 [1,4-diacetyl benzene] |  |  |  |  |  | pIC50 (MvitPBP1): 4.71; pKi (MvitPBP1): 4.76 |
| CCCCC/C=C/CCCCCCCCCO [E10-16: OH, (E)-10-Hexadecen-1-ol] | 5.12 | 5.17 | 5.17 | 5.23 | 0.97 µM (≈ 0.233 µg/mL) |  |
| CC(C=O)Cc1ccccc1 (stereo not shown) [2-methyl-3-phenylpropanal] |  |  |  | 4.74 |  | pIC50 (MvitPBP2; read-out: IC50 (ligand concentration displacing 50% of the fluorescence intensity of the MvitPBPs/1-NPN complex); MvitPBP2; 2 μM protein and 1-NPN, 20 mM Tris-HCl pH 7.4): 4.68; Ligand binding capacity (in words) [2]: bonded strongly; pIC50 (MvitGOBP2): 5.42 |
| c1ccc(Nc2cccc3ccccc23)cc1 [1-NPN, N-phenyl-1-naphthylamine, reference compound] |  |  |  |  |  | pKd (MvitPBP1): 4.89; pKd (MvitPBP2; read-out: Dissociation constant of the MvitPBP2/1-NPN complex; calculated by Scatchard plots): 4.93 |
| CCC/C=C/C=C/CCCCCCCCCO [E10E12-16: OH, (E,E)-10,12-Hexadecadien-1-ol] | 5.05 | 5.11 | 5.23 | 5.29 | 0.17 µM (≈ 0.0405 µg/mL) |  |
| CCC/C=C/C=C/CCCCCCCCC=O [E10E12-16: Ald, (E,E)-10,12-Hexadecadienal] | 5.25 | 5.30 | 5.23 | 5.29 | 0.5 µM (≈ 0.118 µg/mL) |  |
